This assay addresses T1, YuiC (degraded K32-E218) (Bacillus subtilis, UniProt O32108).
T1 construct: mature protein K32-E218, signal peptide removed, E. coli Rosetta 2 (DE3), His-tag cut by TEV leaving GIDPFT; partially proteolysed at or close to R52; residues 72-217 modelled; domain-swapped dimer, site formed by both chains
T1 sequence (O32108 32-218): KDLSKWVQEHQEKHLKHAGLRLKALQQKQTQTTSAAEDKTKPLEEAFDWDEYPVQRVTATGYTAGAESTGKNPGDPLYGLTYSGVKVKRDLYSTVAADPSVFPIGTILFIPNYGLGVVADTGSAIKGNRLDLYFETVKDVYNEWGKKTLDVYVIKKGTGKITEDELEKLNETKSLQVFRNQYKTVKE
As to the kind of experiment: X-ray crystal structure, […] Å. It counts as binding. As to conditions: 5 mM NAG in crystallisation, pH 6.0; bound at -2 site, one per chain.

Consider `CC(=O)N[C@H]1C(O)O[C@H](CO)[C@@H](O)[C@@H]1O` (stereo partly shown) [NAG, N-acetylglucosamine], for which the “X-ray crystal structure, 1.21 Å” value was “Crystallisation of YuiC in the presence of NAG gives a structure with a single”.

These data come from paper PMC4499186, “Structure of the stationary phase survival protein YuiC from B.subtilis” (BMC Structural Biology, 2015).
